Assay results: patent US8906904B2, “Alkoxy pyrazoles as soluble guanylate cyclase activators” (Boehringer Ingelheim International GmbH, priority 2012, dated 2014)

Test: human liver microsome (HLM) metabolic stability assay
Assay type: in vitro ADME
Conditions: human liver microsomes; % hepatic blood flow calculated from t1/2
Method in brief: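 Compounds at 1 uM incubated with human liver microsomes plus NADPH at 37° C., sampled at 0, 5, 15, 30 and 60 min into cold acetonitrile and quantified by LC/MS/MS. t½ from the slope of ln % remaining vs time; CLint, CLh and % Qh derived from it (n=1).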

SMILES | HLM (% Qh)
CCOc1c(C(=O)O)cnn1-c1cccc(-c2cccc(C)c2OCc2ccc3c(c2)CCN(CC2CCOC2)C3)n1 (stereo not drawn) [Compound 68] | <24
CCOc1c(C(=O)O)cnn1-c1cccc(-c2cccc(C)c2OCc2ccc3c(c2)CCN(CC2CCOCC2)C3)n1 [Compound 69] | <24
CCOc1c(C(=O)O)cnn1-c1cccc(-c2cccc(C)c2OCc2ccc3c(c2)CCN(C(C)CS(C)(=O)=O)C3)n1 (stereo not drawn) [Compound 70] | <24
CCOc1c(C(=O)O)cnn1-c1cccc(-c2cccc(C)c2OCc2ccc3c(c2)CCN(C2CCOC2C)C3)n1 (stereo not drawn) [Compound 71] | <24
COc1c(C(=O)O)cnn1-c1cccc(-c2cccc(C)c2OCc2ccc3c(c2)CCN(CC2CC2(F)F)C3)n1 (stereo not drawn) [Compound 72, 1-(6-{2-[2-(2,2-difluoro-cyclopropylmethyl)-1,2,3,4-tetrahydro-isoquinolin-6-ylmethoxy]-3-methyl-phenyl}-pyridin-2-yl)-5-methoxy-1H-pyrazole-4-carboxylic acid] | 47
COc1c(C(=O)O)cnn1-c1cccc(-c2cccc(C)c2OCc2ccc3c(c2)CCN(C2CC(C)(C)OC(C)(C)C2)C3)n1 [Compound 73] | 36
COc1c(C(=O)O)cnn1-c1cccc(-c2cccc(C)c2OCc2ccc3c(c2)CCN(CCS(C)(=O)=O)C3)n1 [Compound 74] | <24
COc1c(C(=O)O)cnn1-c1cccc(-c2cccc(C)c2OCc2ccc3c(c2)CCN(C2C4CCOC4C2(C)C)C3)n1 (stereo not drawn) [Compound 75] | 31
CCOc1c(C(=O)O)cnn1-c1cccc(-c2cccc(C)c2OCc2ccc3c(c2)CCN(C2CCOCC2)C3)n1 [Compound 77] | <24
CCOc1c(C(=O)O)cnn1-c1cccc(-c2cccc(C)c2OCc2ccc3c(c2)CCN(C2CCOC(C)C2)C3)n1 (stereo not drawn) [Compound 78] | <24
CCOc1c(C(=O)O)cnn1-c1cccc(-c2cccc(C)c2OCc2ccc3c(c2)CCN(C2CCOC(CC)C2)C3)n1 (stereo not drawn) [Compound 79] | <24
CCOc1c(C(=O)O)cnn1-c1cccc(-c2cccc(C)c2OCc2ccc3c(c2)CCN(CC2CCOC(C)(C)C2)C3)n1 (stereo not drawn) [Compound 80] | <24
COc1c(C(=O)O)cnn1-c1cccc(-c2cccc(C)c2OCc2ccc3c(c2)CCN(C2CCOCC2OC)C3)n1 (stereo not drawn) [Compound 81] | <24
COc1c(C(=O)O)cnn1-c1cccc(-c2cccc(C)c2OCc2ccc3c(c2)CN(CC2CC(F)(F)C2)C3)n1 [Compound 82] | <24
COc1c(C(=O)O)cnn1-c1cccc(-c2cccc(C(F)(F)F)c2OCc2ccc3c(c2)CCN(C2CCOCC2)C3)n1 [Compound 83] | <24
COc1c(C(=O)O)cnn1-c1cccc(-c2cccc(C(F)(F)F)c2OCc2ccc3c(c2C)CCN(C2CCOCC2)C3)n1 [Compound 84] | <24
COc1c(C(=O)O)cnn1-c1cccc(-c2cccc(C)c2OCc2ccc3c(c2)CN(C2COC2)C3)n1 [Compound 85] | <24
COc1c(C(=O)O)cnn1-c1cccc(-c2cccc(C)c2OCc2ccc3c(c2)CCN(C2CCOCC2C)C3)n1 (stereo not drawn) [Compound 86] | <24
COc1c(C(=O)O)cnn1-c1cccc(-c2cccc(C)c2OCc2ccc3c(c2)CCN(C2CC4CCC(C2)O4)C3)n1 (stereo not drawn) [Compound 87] | <24
COc1c(C(=O)O)cnn1-c1cccc(-c2cccc(C(F)(F)F)c2OCc2ccc3c(c2C)CCN(C2COC2)C3)n1 [Compound 88] | <24
COc1c(C(=O)O)cnn1-c1cccc(-c2cccc(C)c2OCc2ccc3c(c2)C(C)(C)CN(C2CCOCC2)C3)n1 [Compound 89] | 76
COc1c(C(=O)O)cnn1-c1cccc(-c2cccc(C)c2OCc2ccc3c(c2)CCN([C@H]2CC[C@H](OC)CC2)C3)n1 [Compound 90] | <24
COc1c(C(=O)O)cnn1-c1cccc(-c2cccc(C)c2OCc2ccc3c(c2)CCN([C@H]2CC[C@@H](OC)CC2)C3)n1 [Compound 91] | <24
COc1c(C(=O)O)cnn1-c1cccc(-c2cccc(C)c2OCc2ccc3c(c2)CCN(CC2COCCO2)C3)n1 (stereo not drawn) [Compound 92] | <24
COc1c(C(=O)O)cnn1-c1cccc(-c2cccc(C(F)(F)F)c2OCc2ccc3c(c2)CN(C2CCOCC2)C3)n1 [Compound 93] | <24
CCOc1c(C(=O)O)cnn1-c1cccc(-c2cccc(C)c2OCc2ccc3c(c2)CCN(C2CCOCC2F)C3)n1 (stereo not drawn) [Compound 94] | <24
CCOc1c(C(=O)O)cnn1-c1cccc(-c2cccc(C)c2OCc2ccc3c(c2)CCN(CC2CC(F)(F)C2)C3)n1 [Compound 96] | 30
